Test results: patent US5906922A, “Delivery of nucleic acids” (Commonwealth Scientific and Industrial Research Organisation, priority 1994, dated 1999)
Where a SMILES comes first, the peptide text is derived from it. The star is where a group is joined. NHC(CH2O-Palmitoyl)3 = CCCCCCCCCCCCCCCC(=O)OCC(COC(=O)CCCCCCCCCCCCCCC)(COC(=O)CCCCCCCCCCCCCCC)N*; X5 = CCCCCCCCCCCCCCCC(=O)OCC(CO)(COC(=O)CCCCCCCCCCCCCCC)N*; X4 = CCCCCCCCCCCC(=O)OCC(CO)(COC(=O)CCCCCCCCCCC)N*

What was measured:
Cos 1 cells [1] = test: Transfection of pSVLCAT, CAT assay, Cos 1; format: cell-based, African Green Monkey; settings: for Transfection (CAT): Table 1, Cos 1, optimised level of agent
Experimental: To test the transfection properties of the lead compound K3ATP3 (VerafectinA3), whole uncut plasmid carrying the gene encoding CAT (chloramphenicol acetyl transferase) under the control of the SV40 late promoter, pSVLCAT (Cameron, F. H. and Jennings, P. A. (1989) PNAS 86, 9139-9143) was mixed with the test agent and put on Cos 1 cells under various conditions. After 48 hours of culture the level of secreted CAT was assayed from the culture medium.
Solution I: 1 μg Plasmid DNA in 500 μl Dulbeccos Modified Eagles Medium (DME)
Solution II: 0-20 μl VerafectinA3 (2.5 mg/ml 25% DMSO) in 500 μl DME, Vortex
Combine solution I and II, vortex briefly and incubate at room temperature for 10 min.
Add mix to washed cells in 60 mm tissue culture dishes (seeded 0.5×10^6 /dish previous day) for 6 hrs at 37° C., 5% C02. Add 2 ml DME+10% FCS for remainder of 48 hrs. Assay CAT levels in tissue culture medium (Sleigh, M. J. (1986) Anal. Biochem. 156.251-256).
a--Compare VerafectinA3 dissolved in DMSO or ethanol.
b--Compare VerafectinA3 on cells 6 hrs to overnight. VerafectinA3 at 10 mg/ml in 100% solvent was diluted to 2.5 mg/ml with water.
Transfection was carried out as for experiment 1. VerafectinA3 was left in contact with the cells for varying times.
Protocol was the same for the Verafectins as described above. Lipofectamine protocol was according to manufacturers instructions. Cos 1 cells were seeded at 5×10^5 /60 mm dish and adhered overnight in DME with 10% FCS.
Solution A: 0.5 μg pSVLCAT/60 mm dish.
Solution B: Lipofectamine 10 and 15 μl 2 mg/ml (mixed formulation 3:1 with DOPE).
OR; VerafectinA3 and VerafectinG2 20 μl 2 mM (2.8 and 2.3 mg/ml respectively) stock.
OR; VerafectinG2 was also tested with an equimolar amount of DOPE. VerafectinG2 and DOPE were mixed in DDME and vortexed for 30 seconds before use. Solutions A and B were combined before overlaying on washed cells.
The serum free incubation period in the presence of test agents and DNA was 6 hrs, then 1 ml DME+10% FCS was added. At 24 hours medium was changed to 2 ml fresh DME+10% FCS until harvest at 48 hrs.
(§1) Cell lines Cos 1 or CHO were transfected with 0.5 μg of pSVLCAT or 2 μg of pPGKlacZ plasmid using a range of concentrations of each transfection compound. The optimal concentration of compound, that is the concentration giving the highest level of CAT at 48 hours or the greatest percentage of lac z (β-galactosidase) staining cells at 24 hours was used to collate data for Table 1. As all compounds were not tested in a single experiment, absolute figures indicating transfection were not used. Rather, symbols are used to indicate the transfection efficiency relative to Lipofectamine (BRL), which was included as a control in all experiments. Table 1 thus indicates the relative efficiencies of a number of compounds in mediating the transfection of at least one cell type.
(§2) All test lipopeptide reagents were originally dissolved at 10 mM in 75% DMSO, and subsequently diluted with water to make a 2 mM stock stored at 4° C. Volumes of 2 mM stock lipopeptide ranging from 2 μl to 15 μl were diluted in 500 μl of DDME. 1 μg of plasmid pSVLCAT was separately diluted in 500 μl of DDME. Solutions were combined for 10-20 min at room temperature before adding to 500 μl of DDME in 60 mm dishes of subconfluent CHO cells (2×10^5 day-1) or Cos 1 cells (5×10^5 day-1); washed free of serum with DDME.
(§3) Cells were incubated for 6 hrs under standard conditions of 37° C. and 5% CO2 for 6 hours. 1.5 ml of DME/Hams+10% FCS (CHO) or DME+10% FCS (Cos 1) was added to the cells for overnight incubation. Fresh DME/Hams+10% FCS or DME+10% FCS was used to replace the medium for a further 24 hours prior to harvest. Cell lysates were prepared and assayed for CAT activity as described above. For Cos 1 cells, culture supernatants were assayed for CAT activity.
For transfection of pSVLCAT and subsequent assay of CAT enzyme, experiments "a" and "b" were carried out as described above.

CHO cells = test: Transfection of pSVLCAT, CAT assay, CHO; format: cell-based, Chinese Hamster; settings: Table 1, CHO, optimised level of agent
Experimental: Protocol was the same for Verafectin and Transfectam (see above) with the exception that 0.5 μg of pSVLCAT DNA was used /60 mm dish.
Lipofectamine protocol was according to manufacturer's instructions. 0.5 μg pSVLCAT/60 mm dish. CHO cells seeded 1×10^5 /60 mm dish and adhered overnight in DME/Hams medium with 10% FCS.
Transfectam 5 or 10 μl 1mg/400 μl stock solution.
Lipofectamine 5 or 10 μl 2 mg/ml (mixed formulation 3:1 with DOPE). VerafectinA3 (K3ATP3) and VerafectinG2 (K3G[Glycine]TP2) each at 5, 10 and 15 μl of 2 mM (2.8 and 2.3 mg/ml respectively) stock.
The serum free incubation period in the presence of test agents and DNA was 6 hours, then 1 ml DME/Hams+10% FCS was added. At 24 hrs the medium was changed to 2 ml of fresh DME/Hams+10% FCS until harvest at 48 hrs.
as §1, §2, §3
a. Using the standard transfection procedure described above, and 1 μg plasmid pSVLCAT, these formulations were tested on CHO cells at a single concentration equivalent to 10 μl of Verafectin A2 (2 mM) per sample and compared to unformulated compound and Lipofectamine in the same cell type. CAT production was assayed 48 hours after transfection.

Cos 1 cells [2] = format: cell-based, African Green Monkey
Experimental: Relative levels of cytotoxicity were also assayed in subsequent experiments using the dye MTS, marketed as Cell titre 96 Aqueous (Promega).
(§4) The ratio of [lipid]/[DNA] at which that maximum was achieved is shown. Experiments shown were carried out in Cos 1 cells, as described above. MTS OD is a measure of relative viabilility of the cells exposed to the different agents, a higher value indicates greater cell viability. * These points were taken from a separate experiment and some slight variation between absolute numbers should be expected between experiments.
(§5) The ratio of [lipid]/[DNA] at which that maximum was achieved is shown in brackets for the two different cell types in the following order; (Cos 1) (CHO). Experiments shown were carried out in Cos 1 cells, as described above. Viability was measured with the dye alamar blue . # Denotes compounds tested in a separate experiment. * Viability in this experiment was determined with MTS. OD is a measure of relative viability of the cells exposed to the different agents, and as with alamar blue, a higher value indicates greater cell viability.

Cos 1 cells [3] = test: β-gal microtitre plate transfection assay, Cos 1; format: cell-based, African Green Monkey; settings: for units β-gal: Table 2, Cos 1, highest reading of 72 conditions
Excerpt: For experiment "c", a plasmid pPGKlaczNLS encoding β-galactosidase under the control of the mouse PGK promoter (kind gift from G.Hannan) or pSVGAL which utilises the SV40 early promoter (Sleigh, M. J. and Lockett, T. J. (1985). EMBO J. 4:3831-3837),was transfected. This experiment and assay were modified from Feigner et al J. Biol Chem. 269(4) 2550-2561 1994. This protocol allows the simultaneous assessment of 72 different combinations and concentrations of DNA and test agent in a microtitre tray. […] Cytotoxicity was assessed using alamar blue, and a sample graph is shown for experiment a.
Compounds were tested for their ability to transfect either the CAT or β-gal gene carried on plasmids, and assayed as described above.
as §4
Each of these compounds was tested for transfection ability and cytotoxicity on standard cell lines using standard conditions as described above.
as §5

CCCCCCCCCCCCCCCC(=O)OCC(CO)(COC(=O)CCCCCCCCCCCCCCC)NC(=O)[C@H](C)NC(=O)[C@H](CCCCN)NC(=O)[C@H](CCCCN)NC(=O)[C@H](CCCCN)NC(=O)[C@@H](N)CCCCN [K4ATP2] (H-KKKKA-X5)
Transfection (CAT) (Cos 1 cells [1]): +

CCCCCCCCCCCCCCCC(=O)OCC(COC(=O)CCCCCCCCCCCCCCC)(COC(=O)CCCCCCCCCCCCCCC)NC(=O)CNC(=O)[C@H](CCCCN)NC(=O)[C@H](CCCCN)NC(=O)[C@@H](N)CCCCN [K3GTP3] (H-KKKG-{NHC(CH2O-Palmitoyl)3})
Transfection (CAT) (CHO cells): +
Transfection (CAT) (Cos 1 cells [1]): +/-

CCCCCCCCCCCCCCCC(=O)OCC(CO)(COC(=O)CCCCCCCCCCCCCCC)NC(=O)[C@H](CCCCN)NC(=O)[C@H](CCCCN)NC(=O)[C@@H](N)CCCCN [K2KTP2]
transfection, dipalmitate versus tripalmitate (Cos 1 cells [1]; R1-R4 experiment d, Cos 1, lysine linker): significantly less active than the tripalmitate molecule

CCCCCCCCCCCCCCCC(=O)OCC(CO)(CO)NC(=O)[C@H](C)NC(=O)[C@H](CCCCN)NC(=O)[C@@H](N)CCCCN [K2ATP1]
transfection, number of palmitates (Cos 1 cells [1]; R1-R4 experiment a, Cos 1, K2 A linker): very inefficient

CCCCCCCCCCCC(=O)OCC(CO)(COC(=O)CCCCCCCCCCC)NC(=O)[C@H](C)NC(=O)[C@H](CCCCN)NC(=O)[C@H](CCCCN)NC(=O)[C@@H](N)CCCCN [K3ATL2] (H-KKKA-X4)
MTS OD490-655 (Cos 1 cells [2]): 1.554
Viability (Cos 1) (Cos 1 cells [2]): 1.55
ratio [lipid]/[DNA] at which maximum was achieved (Cos 1 cells [3]; Table 2, Cos 1): 0.69
units β-gal (Cos 1 cells [3]): 1.06 × 10^-5 units
ratio [lipid]/[DNA] at which maximum was achieved (Cos 1 cells [3]; Table 3, Cos 1): .69
β-gal (Cos 1) (Cos 1 cells [3]; Table 3, Cos 1, highest reading of 72 conditions): 1.06 × 10^-5

CCCCCCCCCCCCCCCC(=O)OCC(CO)(COC(=O)CCCCCCCCCCCCCCC)NC(=O)[C@H](C)NC(=O)[C@@H](N)CCCCN [K1ATP2]
CAT activity (mean) (Cos 1 cells [1]; "x" peptide experiment b, Cos 1, 25 μl lysate, 135 min 37° C.): 12670 cpm

CCCCCCCCCCCCCC(=O)OCC(COC(=O)CCCCCCCCCCCCC)(COC(=O)CCCCCCCCCCCCC)NC(=O)[C@H](C)NC(=O)[C@H](CCCCN)NC(=O)[C@H](CCCCN)NC(=O)[C@@H](N)CCCCN [K3ATM3]
MTS OD490-655 (Cos 1 cells [2]): 1.22
Viability (Cos 1) (Cos 1 cells [2]): 1.22
ratio [lipid]/[DNA] at which maximum was achieved (Cos 1 cells [3]; Table 2, Cos 1): 1.39
units β-gal (Cos 1 cells [3]): 2.86 × 10^-4 units
ratio [lipid]/[DNA] at which maximum was achieved (Cos 1 cells [3]; Table 3, Cos 1): 1.39
β-gal (Cos 1) (Cos 1 cells [3]; Table 3, Cos 1, # tested in a separate experiment): 2.86 × 10^-4
